Results as given in PubChem BioAssay AID1963866 (Molecular Pharmacology Branch, DTP, NCI, 2024).

Test system: PDC KRAS tumor spheroids with HUVEC/MSC, viability
Assay: Anticancer human tumor 349418-098-R-PDC patient-derived lung adenocarcinoma cell line growth inhibition [KRAS2]
Conditions: for IC50: curve of first compound; for viability, T/C: stronger effect = lower value; active = viability on the fitted dose curve at most 10% of control; inactive = the rest
How it was run: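 Combination screen of spheroid viability in tumor-cell co-cultures with endothelial (HUVEC) and mesenchymal stem cell stroma. Each agent was tested in half-log dilutions, topping at clinical Cmax or at 10 microM without a known Cmax.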

[1] = second compound 0.0316 µM, first compound 0.0316 µM
[2] = second compound 0.0316 µM, first compound 0.1 µM
[3] = second compound 0.0316 µM, first compound 0.316 µM
[4] = second compound 0.0316 µM, first compound 1 µM
[5] = second compound 0.0316 µM, first compound 3.16 µM
[6] = second compound 0.0316 µM, first compound 10 µM
[7] = second compound 0.1 µM, first compound 0.0316 µM
[8] = second compound 0.1 µM, first compound 0.1 µM
[9] = second compound 0.1 µM, first compound 0.316 µM
[10] = second compound 0.1 µM, first compound 1 µM
[11] = second compound 0.1 µM, first compound 3.16 µM
[12] = second compound 0.1 µM, first compound 10 µM
[13] = second compound 0.316 µM, first compound 0.0316 µM
[14] = second compound 0.316 µM, first compound 0.1 µM
[15] = second compound 0.316 µM, first compound 0.316 µM
[16] = second compound 0.316 µM, first compound 1 µM
[17] = second compound 0.316 µM, first compound 3.16 µM
[18] = second compound 0.316 µM, first compound 10 µM
[19] = second compound 1 µM, first compound 0.0316 µM
[20] = second compound 1 µM, first compound 0.1 µM
[21] = second compound 1 µM, first compound 0.316 µM
[22] = second compound 1 µM, first compound 1 µM
[23] = second compound 1 µM, first compound 3.16 µM
[24] = second compound 1 µM, first compound 10 µM
[25] = second compound 3.16 µM, first compound 0.0316 µM
[26] = second compound 3.16 µM, first compound 0.1 µM
[27] = second compound 3.16 µM, first compound 0.316 µM
[28] = second compound 3.16 µM, first compound 1 µM
[29] = second compound 3.16 µM, first compound 3.16 µM
[30] = second compound 3.16 µM, first compound 10 µM
[31] = second compound 0.0316 µM, first compound 0.00316 µM
[32] = second compound 0.0316 µM, first compound 0.01 µM
[33] = second compound 0.1 µM, first compound 0.00316 µM
[34] = second compound 0.1 µM, first compound 0.01 µM
[35] = second compound 0.316 µM, first compound 0.00316 µM
[36] = second compound 0.316 µM, first compound 0.01 µM
[37] = second compound 1 µM, first compound 0.00316 µM
[38] = second compound 1 µM, first compound 0.01 µM
[39] = second compound 3.16 µM, first compound 0.00316 µM
[40] = second compound 3.16 µM, first compound 0.01 µM
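Also: spheroids exposed to compounds for seven days before readout.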

CC(C)NCC(C(=O)N1CCN(c2ncnc3c2C(C)CC3O)CC1)c1ccc(Cl)cc1 (stereo not given) + C=CC(=O)N1CCN(c2nc(OCC3CCCN3C)nc3c2CCN(c2cccc4cccc(C)c24)C3)CC1CC#N
289 nM: IC50 (second compound 0.316 µM)
254 nM: IC50 (second compound 0.1 µM)
inactive: viability, T/C [1] 95.7% | viability, T/C [2] 69.4% | viability, T/C [3] 52.3% | viability, T/C [4] 30.7% | viability, T/C [5] 16.9% | viability, T/C [7] 90.8% | viability, T/C [8] 76.8% | viability, T/C [9] 42.5% | viability, T/C [10] 20.9% | viability, T/C [11] 15.2% | viability, T/C [12] 7.07% | viability, T/C [13] 87.7% | viability, T/C [14] 77.9% | viability, T/C [15] 44.7% | viability, T/C [16] 24.6% | viability, T/C [17] 15.7% | viability, T/C [19] 79.9% | viability, T/C [20] 66.1% | viability, T/C [21] 43.7% | viability, T/C [22] 19%
313 nM: IC50 (second compound 0.0316 µM)
active: viability, T/C [6] 6.91% | viability, T/C [18] 5.1% | viability, T/C [23] 8.97% | viability, T/C [24] 4.67% | viability, T/C [25] 0.14% | viability, T/C [26] 0.14% | viability, T/C [27] 0.1% | viability, T/C [28] 0.23% | viability, T/C [29] 0.21% | viability, T/C [30] 0.13%
< 31.6 nM: IC50 (second compound 3.16 µM)
224 nM: IC50 (second compound 1 µM)

CC1(C)CCC(CN2CCN(c3ccc(C(=O)NS(=O)(=O)c4ccc(NCC5CCOCC5)c([N+](=O)[O-])c4)c(Oc4cnc5[nH]ccc5c4)c3)CC2)=C(c2ccc(Cl)cc2)C1 + C=CC(=O)N1CCN(c2nc(OCC3CCCN3C)nc3c2CCN(c2cccc4cccc(C)c24)C3)CC1CC#N
1680 nM: IC50 (second compound 0.0316 µM)
1180 nM: IC50 (second compound 1 µM)
< 31.6 nM: IC50 (second compound 3.16 µM)
active: viability, T/C [6] 4.29% | viability, T/C [12] 4.13% | viability, T/C [18] 3.73% | viability, T/C [23] 4.26% | viability, T/C [24] 1.75% | viability, T/C [25] 0.15% | viability, T/C [26] 0.15% | viability, T/C [27] 0.14% | viability, T/C [28] 0.2% | viability, T/C [29] 0.09% | viability, T/C [30] 0.11%
inactive: viability, T/C [1] 97.5% | viability, T/C [2] 100% | viability, T/C [3] 89.4% | viability, T/C [4] 80% | viability, T/C [5] 13.8% | viability, T/C [7] 96.2% | viability, T/C [8] 94.8% | viability, T/C [9] 76.5% | viability, T/C [10] 66.2% | viability, T/C [11] 13.6% | viability, T/C [13] 92.6% | viability, T/C [14] 87.5% | viability, T/C [15] 77.1% | viability, T/C [16] 72.1% | viability, T/C [17] 10.9% | viability, T/C [19] 76.8% | viability, T/C [20] 75% | viability, T/C [21] 68.2% | viability, T/C [22] 57.7%
1510 nM: IC50 (second compound 0.316 µM)
1340 nM: IC50 (second compound 0.1 µM)

CCN1CCN(Cc2ccc(Nc3ncc(F)c(-c4cc(F)c5nc(C)n(C(C)C)c5c4)n3)nc2)CC1 + C=CC(=O)N1CCN(c2nc(OCC3CCCN3C)nc3c2CCN(c2cccc4cccc(C)c24)C3)CC1CC#N
4.51 nM: IC50 (second compound 0.0316 µM)
6 nM: IC50 (second compound 0.316 µM)
6.76 nM: IC50 (second compound 0.1 µM)
< 3.16 nM: IC50 (second compound 1 µM) | IC50 (second compound 3.16 µM)
active: viability, T/C [4] 4.49% | viability, T/C [9] 10.2% | viability, T/C [10] 3.97% | viability, T/C [15] 10.4% | viability, T/C [16] 2.4% | viability, T/C [20] 12.4% | viability, T/C [21] 8.99% | viability, T/C [22] 0.45% | viability, T/C [39] 0.15% | viability, T/C [40] 0.09% | viability, T/C [25] 0.07% | viability, T/C [26] 0.08% | viability, T/C [27] 0.08% | viability, T/C [28] 0.19%
inactive: viability, T/C [31] 56% | viability, T/C [32] 37.7% | viability, T/C [1] 19.3% | viability, T/C [2] 16.6% | viability, T/C [3] 14.1% | viability, T/C [33] 80.7% | viability, T/C [34] 31.3% | viability, T/C [7] 20.2% | viability, T/C [8] 15.4% | viability, T/C [35] 64.8% | viability, T/C [36] 40.2% | viability, T/C [13] 15.8% | viability, T/C [14] 19.1% | viability, T/C [37] 46.1% | viability, T/C [38] 24.9% | viability, T/C [19] 15.2%

Cn1ncnc1[C@H]1c2n[nH]c(=O)c3cc(F)cc(c23)N[C@@H]1c1ccc(F)cc1 + C=CC(=O)N1CCN(c2nc(OCC3CCCN3C)nc3c2CCN(c2cccc4cccc(C)c24)C3)CC1CC#N
< 0.316 nM: IC50 (second compound 3.16 µM)
active: viability, T/C (second compound 3.16 µM, first compound 0.000316 µM) 0.16% | viability, T/C (second compound 3.16 µM, first compound 0.001 µM) 0.14% | viability, T/C [39] 2.18% | viability, T/C [40] 1.01% | viability, T/C [25] 0.72% | viability, T/C [26] 0.18%
> 100 nM: IC50 (second compound 0.0316 µM) | IC50 (second compound 0.1 µM) | IC50 (second compound 0.316 µM) | IC50 (second compound 1 µM)
inactive: viability, T/C (second compound 0.0316 µM, first compound 0.000316 µM) 98.3% | viability, T/C (second compound 0.0316 µM, first compound 0.001 µM) 93.3% | viability, T/C [31] 84.3% | viability, T/C [32] 85.5% | viability, T/C [1] 86.8% | viability, T/C [2] 74.9% | viability, T/C (second compound 0.1 µM, first compound 0.000316 µM) 93.7% | viability, T/C (second compound 0.1 µM, first compound 0.001 µM) 96.9% | viability, T/C [33] 83.6% | viability, T/C [34] 80.3% | viability, T/C [7] 74.3% | viability, T/C [8] 75.9% | viability, T/C (second compound 0.316 µM, first compound 0.000316 µM) 94.8% | viability, T/C (second compound 0.316 µM, first compound 0.001 µM) 97.9% | viability, T/C [35] 85.7% | viability, T/C [36] 85.7% | viability, T/C [13] 79.2% | viability, T/C [14] 68% | viability, T/C (second compound 1 µM, first compound 0.000316 µM) 84.4% | viability, T/C (second compound 1 µM, first compound 0.001 µM) 82.8% | viability, T/C [37] 68.6% | viability, T/C [38] 75.2% | viability, T/C [19] 70.2% | viability, T/C [20] 58.8%
